Source: patent publication US12642784B2, “ANAVEX2-73 for the treatment of genetic neurodevelopmental disorders” (ANAVEX LIFE SCIENCES CORP., priority 2019, dated 2026)

Legend:
[1] = test system: healthy male volunteers; details: cited from earlier work
[2] = test system: subject, diagnosed with Rett Syndrome; experiment: Example 6: liquid formulation in a subject with Rett Syndrome; type: in vivo, human; details: 1 mL of liquid formulation (0.2 mg/mL)
Procedure: A subject, diagnosed with Rett Syndrome is administered 1 mL of a liquid formulation (0.2 mg/mL).

[3] = test system: subject diagnosed with Rett Syndrome; experiment: Example 1: daily liquid formulation in a subject with Rett Syndrome, follow-up questionnaire; type: in vivo, human; details: 5 mL of 0.2 mg/mL liquid formulation daily, total daily dose 1 mg
Procedure: A subject diagnosed with Rett Syndrome was daily administered 5 mL of a liquid formulation containing A2-73 at a concentration of 0.2 mg/mL, for a total daily dose of 1 mg of […]2-73.

[4] = test system: glutamate and GABA biomarkers; experiment: Example 5: plasma glutamate and GABA biomarkers; type: in vivo, human; details: Week 0 vs. Week 7; Wilcoxon Z=−1.992, p (2-tailed)=0.046
From the text: In one aspect, the method further comprises measuring, or having measured or obtained a baseline plasma glutamate and/or gamma aminobutyric acid (GABA) level in the subject prior to treatment with ANAVEX2-73 as described herein, and measuring or having measured or obtained at least a second plasma glutamate and/or gamma aminobutyric acid (GABA) level following a period of treatment with ANAVEX2-73 as described herein. Measurement of a plasma glutamate and/or gamma aminobutyric acid (GABA) level comprises withdrawing a whole blood sample from the subject, separating the blood plasma from remaining whole blood components such as by centrifuging the sample, isolating the blood plasma, and measuring the amount of glutamate and/or gamma aminobutyric acid (GABA) in the blood plasma using any one of several techniques known in the art. […]
(§1) For efficacy, the following parameters were measured in the female subjects: Rett Syndrome Behavior Questionnaire (RSBQ), Clinical Global Impressions (CGI-I), hand behaviors (RSBQ), breathing problems (RSBQ), waking during sleep (RSBQ), and glutamate biomarker, and GABA biomarkers.
(§2) Evaluation of the efficacy was measured as a comparison from baseline (week 0), week 4, and to end of treatment (week 7). Blood plasma samples were analyzed at week 0 and at week 7 to measure the levels of glutamate and GABA biomarkers. […]

[5] = test system: female subjects diagnosed with Rett Syndrome; experiment: Example 5: 7-week treatment of Rett Syndrome subjects, RSBQ and CGI-I; type: in vivo, human
From the text: One useful measure of improvement for one or more symptoms of a genetic neurodevelopmental disorder may be determined using a behavioral questionnaire that interrogates a primary caregiver of a subject at multiple time points during a course of treatment, regarding multiple behavioral indicators of the disorder. For example, a Rett Syndrome Behavior Questionnaire (RSBQ) may comprise multiple, e.g., at least five but optionally 10 or more, such as 12, 15, 20, 25, 30, 35, 40, 45 or 50 or more behavioral indicators which ask for a caregiver's observations of the subject regarding the frequency of specific episodes or occurrences of each indicator. […]
Another useful measurement for one or more symptoms of a genetic neurodevelopmental disorder is a Clinical Global Impression-Improvement scale (CGI-I). This scale measures the improvement or worsening of the subject's condition relative to a baseline state before administration of the dosage form comprising a therapeutically acceptable amount of ANAVEX2-73, as assessed by one or more healthcare professionals. […]
as §1, §2

[6] = type: physicochemical
From the text: Dosage formulations used in the disclosed methods comprise a therapeutically effective amount of ANAVEX2-73, the crystalline HCl salt of tetrahydro-N,N-dimethyl-2,2-diphenyl-3-furanmethanamine, or tetrahydro-N,N-dimethyl-2,2-diphenyl-3-furanmethanamine hydrochloride (IUPAC name: 1-(2,2-diphenyloxolan-3-yl)-N,N-dimethylmethanamine hydrochloride). […] Thus ANAVEX2-73 (used herein to refer to the HCl salt or the free base) is highly amenable to incorporation in the dosage formulations disclosed herein. For example, ANAVEX2-73 as either the HCl salt or the free base has a relatively low molecular weight (<400 Da), and is thus well suited for transmucosal or transdermal delivery, or rapid oral delivery. ANAVEX2-73 has a pKa around 8-9, which also makes it well-suited for transmucosal delivery. Therapeutically effective doses of ANAVEX2-73 are well suited for various thin film formulations, including oral and transdermal thin film formulations.

[7] = single oral dose, healthy male volunteers

| Compound | serious adverse events ([1]; single ascending oral dose, 22 healthy male volunteers) | maximum tolerable dose (MTD) [1, 7] [mg] | minimum intolerable dose (MID) [1, 7] [mg] | CGI-I index [2] | Rett Syndrome Behavior Questionnaire (RSBQ) [2] | motor skills and cognition according to follow-up questionnaire [3] | levels of glutamate biomarker in plasma [4] | improvement in the RSBQ ([5]; all six subjects, week 0 to week 7, Wilcoxon Z=−2.207, p (2-tailed)=0.027) | RSBQ and CGI-I after 7 weeks ([5]; correlated, p=0.003) | parameters measured (FIG. 1, FIG. 2A-D, FIG. 3A-E) ([5]; orally administered liquid formulation, 7 weeks) | solubility in organic solvents [6] |
| --- | --- | --- | --- | --- | --- | --- | --- | --- | --- | --- | --- |
| CN(C)CC1CCOC1(c1ccccc1)c1ccccc1.Cl (centres unmarked) [ANAVEX2-73, tetrahydro-N,N-dimethyl-2,2-diphenyl-3-furanmethanamine hydrochloride] | No serious adverse events | 55 | 60 | improvement | improvement | improvement | decreased significantly | over 30% | reduction | vast improvement | – |
| CN(C)CC1CCOC1(c1ccccc1)c1ccccc1 (centres unmarked) [free base form of ANAVEX2-73, tetrahydro-N,N-dimethyl-2,2-diphenyl-3-furanmethanamine] | – | – | – | – | – | – | – | – | – | – | soluble in almost all organic solvents |
